Measured values as given in US20130296430A1, “COMPOSITIONS AND METHODS FOR TREATING AUTISM AND AUTISM SPECTRUM DISORDER” (priority 2012, published 2013).
Entries after “also recorded” stand apart in the source; their conditions may differ.

System: children with autism
Test: 12-week double-blind randomized placebo-controlled study of NAC: Aberrant Behavior Checklist (ABC)
Format: in vivo, human
Source text: The Aberrant Behavior Checklist (ABC) is a standardized scale comprising 58 items for assessing problem behavior in subjects with mental retardation and developmental disabilities (Aman, M. et al., Am J Ment Defic. 89:492-502 (1985)). The checklist is empirically derived from ratings on approximately 1000 subjects, and the items resolve into five subscales: irritability, lethargy/social withdrawal, stereotypic behavior, hyperactivity, and inappropriate speech. High scores indicate more severe behavioral symptoms.
A 12-week, double-blind randomized, placebo-controlled study of NAC in children with autism was conducted in the Autism & Developmental Disabilities Clinic in the Division of Child & Adolescent Psychiatry at Stanford University Medical Center. The recruitment period started in March 2009 and ended in September 2010. Subjects with and without mental retardation were included. After obtaining informed consent, subjects were screened and inclusion and exclusion criteria were assessed. No changes in eligibility criteria were applied throughout the study. This investigation was approved by the institutional review board at Stanford University School of Medicine. An investigational new drug application (IND#100905) was filed with the Food and Drug Administration, and the study was registered in National Institutes of Health at ClinicalTrials.gov (identifier number NCT00627705).
After the screening phase, baseline measures were obtained from subjects continuing to meet inclusion and exclusion criteria. Subjects were then randomized to either placebo or active based on age and gender. As NAC is a nutritional supplement, the quality control is predictably variable and therefore purity is not as stringent as prescription medications. Therefore, in the present study, the stability of the compound was ascertained and the integrity of the active agent was protected by packaging each NAC doses in individual pockets. The active compound and matching placebo were provided by BioAdvantex Pharma, Inc. (Mississauga, Ontario, Canada). […] Subjects randomized to the active drug were initiated at the dose of 900 mg every day for the first 4 weeks, then 900 mg twice daily for 4 weeks and 900 mg three times daily for 4 weeks. (This dose selection was based on previously published studies for other psychiatric conditions (Grant, J. et al., Arch Gen Psychiatry, 66:468-475 (2009); Berk, M. et al., Biol Psychiatry, 64:361-368 (2008); Berk, M. et al., Bio Psychiatry, 64:468-475 (2008)) and the previous experience of our group in studies of children with cystic fibrosis). Alternatively, subjects were initiated at the dose of 900 mg per day, 1,800 mg per day, or 2,700 mg per day of NAC. Alternatively, the subjects were initiated at the dose ranging from 900 mg per day to 2,700 mg per day of NAC.
If a subject could not tolerate a specific dose, s/he would be maintained at the highest tolerated dose. Subjects were evaluated at baseline, week 4, week 8 and week 12. The Aberrant Behavioral Checklist (ABC) (Aman, M. et al., Am J Ment Defic. 89:492-502 (1985)), the Clinical Global Impressions (CGI) (Guy, W., ECDEU Assessment Manual for Psychopharmacology, Rockville, Md., U.S. Department of Health, Education, and Welfare (1976)), and the Dosage Record and Treatment Emergent Symptom Scale (DOTES) (Guy, W., 1976, ECDEU Assessment Manual for Psychopharmacology, Rockville, Md., U.S. Department of Health, Education, and Welfare) were obtained in each visit. Additional secondary measures were obtained at baseline and at week 12 and included the social responsiveness scale (SRS) (Constantino, J. et al., J. Dev Behav Pediatr., 21:2-11 (2000); Constantino, J. et al., J Autism Dev Disord., 33:427-433 (2003)), and the repetitive behavior scale-revised (RBS-R) (Bodfish, J. et al., The Repetitive Behavior Scale: A test manual (1998)). […]

[1] = Baseline (before treatment), NAC group n = 15
[2] = all randomized participants, p>0.100
[3] = standardized mean difference NAC vs placebo at Week 12

CC(=O)N[C@@H](CS)C(=O)O [NAC, N-acetylcysteine]
ABC hyperactivity, Mean (SD) [1]: 23.4 (9.0)
ABC inappropriate speech, Mean (SD) [1]: 4.9 (3.2)
ABC irritability, Mean (SD) [1]: 16.9 (7.9)
ABC lethargy, Mean (SD) [1]: 15.2 (9.5)
ABC stereotypy, Mean (SD) [1]: 9.1 (5.5)
ABC total, Mean (SD) [1]: 69.7 (24.7)
ABC hyperactivity, Mean (SD) (Week 12, NAC n = 14): 12.4 (11.4)
ABC inappropriate speech, Mean (SD) (Week 12, NAC n = 14): 2.5 (2.6)
ABC irritability, Mean (SD) (Week 12, NAC n = 14): 7.2 (5.7)
ABC lethargy, Mean (SD) (Week 12, NAC n = 14): 11.0 (9.4)
ABC stereotypy, Mean (SD) (Week 12, NAC n = 14): 5.6 (5.7)
ABC total, Mean (SD) (Week 12, NAC n = 14, 900 mg daily 4 wk, twice daily 4 wk, three times daily 4 wk, high scores = more severe): 38.7 (24.1)
ABC-Irritability, treatment effect (Group x Time) (all randomized participants, NAC vs placebo, effects beginning in week 4, continuing through week 8 and 12, p<0.001): significantly improved irritability; also recorded: significant behavioral improvements
ABC-Total, treatment effect (Group x Time) (all randomized participants, NAC vs placebo, from week 4 through week 12, p=0.010): significant effects; also recorded: significant behavioral improvements
ABC-Stereotypy, treatment effect (all randomized participants, NAC vs placebo, p=0.096): marginally significant improvement
ABC hyperactivity subscale, treatment effect [2]: no significant treatment effects
ABC inappropriate speech subscale, treatment effect [2]: no significant treatment effects
ABC lethargy subscale, treatment effect [2]: no significant treatment effects
ABC inappropriate speech, Cohen's d [3]: .35
ABC irritability, Cohen's d [3]: .72
ABC lethargy, Cohen's d [3]: −.32
ABC stereotypy, Cohen's d [3]: .37
ABC total, Cohen's d [3]: .63
